# Reference: patent publication US4367339A, “Substituted N-nitroaniline compounds and inorganic and organic salts thereof useful for enhancing auxiliary branching, canopy flowering and crop yield of plant and as lodging inhibitors therefor” (priority 1980, dated 1983)
# Counter-ions that a name gives are not always drawn.
# Assays:
# barley (Hordeum vulgare) = assay: Dwarfing of barley (plant height, greenhouse, foliar spray); format: in vivo; conditions: three weeks after spraying
# Protocol: (§1) In the following tests, test compounds are dissolved or dispersed in acetone-water (1:1) mixtures at the final concentration corresponding to the kg/ha rates indicated in the table below. The solution also contains 0.25% v/v colloidal BIOFILM® (a product of Colloidal Products Corp.) which is a mixture of alkyl aryl polyethoxyethanol, free and combined fatty acids, glycol ethers, dialkylbenzene carboxylate and 2-propanol.
# (§2) The plant species used in these tests are barley (Hordeum vulgare), (Mexico) and soybean (Glycine max)Adelphia.
# (§3) The solution or dispersion of the compound under test is sprayed at a rate of 747 l/ha with a moving nozzle along an overhead stationary track. The spray nozzle moves at a constant speed over the plants.
# (§4) The plants are grown in plastic pots, and are well established at the time of treatment. The seedlings of barley are 10 to 20 cm in height, while the seedlings of soybeans are at the second to third trifoliate stage. Plants are watered prior to treatment and then sprayed to provide the kg/ha rate of test compound desired. After spraying the plants are placed on greenhouse benches and watered and fertilized in accordance with normal greenhouse procedures.
# (§5) Three weeks after spraying the plants are measured and harvested. Harvesting is done at the boot stage. All treatments are replicated six times and comparisons are made against untreated controls. Data obtained are reported in Table VI below as percent reduction in plant height over untreated controls.
# [1] = tested on: soybeans (Glycine max) var. Adelphia; assay: Increasing flowering of plants (soybeans); format: in vivo, soybean (Glycine max); conditions: rate 0.5 kg/ha, three weeks after spraying
# Protocol: In the following tests seedling soybean plants growing in plastic cups are sprayed with aqueous-acetone solutions or dispersions of test compounds when they have reached the 2nd to 3rd trifoliate stage. Test solutions or dispersions are prepared with 0.25 v/v Colloidal BIOFILM® surfactant and sufficient test compound to provide the plants with 0.5, 0.25, 0.125 or 0.06 kg/ha of said compound when the test solutions are sprayed on said plants from an overhead sprayer delivering 747 l/ha of solution.
# After spraying the plants are placed on greenhouse benches and watered and fertilized. Three weeks after spraying the plants are examined and the amount of flowering determined for all plants. Data obtained are reported in the table below as percent increase in flowering over untreated controls.
# From the data reported in Table VIII below it can be seen that the compounds of the present invention applied at rates of from 0.06 to 0.25 kg/ha enhance flowering of treated plant more than 10% over untreated controls. This response is particularly desirable for treatment of flowering varieties of ornamental plants as well as agronomic crops.
# [2] = tested on: soybeans (Glycine max) Adelphia variety; assay: Increasing axillary branching and improving the canopy of broad leaf plants (soybeans); format: in vivo, soybean (Glycine max); conditions: three weeks after treatment, potassium salt
# Excerpt: In these tests seedling soybean plants approximately three weeks old, and grown in plastic pots to the 2nd to 3rd trifoliate stage, are sprayed with solutions or dispersions of test compound prepared as described in Example 7 above. The same spraying apparatus, described in Example 7 above, is used and after spraying the plants are placed on greenhouse benches and watered and fertilized. Three weeks after treatment the plants are examined to determine what effect the application of test compound has had on the axillary branching and canopy development of the treated plants.
# Increased axillary branching and improved canopy are biological responses which are highly advantageous in the growing of ornamental plants. These responses also have advantage in many crops since increased branching may result in the greater production of fruit, while improved canopy tends to shade and suppress the growth of undesirable weeds that compete with the crops for sunlight, water and plant nutrients. Data obtained are reported in table VII below where axillary branching and canopy are reported as percent increase over untreated controls.
# [3] = tested on: soybean (Glycine max) Adelphia; assay: Dwarfing and stem stiffening of soybeans (plant height, greenhouse, foliar spray); format: in vivo; conditions: three weeks after spraying
# Protocol: as §1, §2, §3, §4, §5
Structure (SMILES),"% Reduction in Plant Height over untreated controls (barley (Hordeum vulgare); rate 0.17 kg/ha, potassium salt)","% Reduction in Plant Height over untreated controls (barley (Hordeum vulgare); rate 0.50 kg/ha, potassium salt)","% Reduction in Plant Height over untreated controls (barley (Hordeum vulgare); rate 1.5 kg/ha, potassium salt)",% Increase in Flowering over untreated controls ([1]; potassium salt),% Increase in axillary branching over untreated controls ([2]; rate 0.125 kg/ha),% Increase in axillary branching over untreated controls ([2]; rate 0.25 kg/ha),% Increase in Plant Canopy over untreated controls ([2]; rate 0.5 kg/ha),"% Reduction in Plant Height over untreated controls ([3]; rate 0.125 kg/ha, potassium salt)","% Reduction in Plant Height over untreated controls ([3]; rate 0.25 kg/ha, potassium salt)","% Reduction in Plant Height over untreated controls ([3]; rate 0.5 kg/ha, potassium salt)","% Reduction in Plant Height over untreated controls (barley (Hordeum vulgare); rate 0.17 kg/ha, sodium salt)","% Reduction in Plant Height over untreated controls (barley (Hordeum vulgare); rate 0.50 kg/ha, sodium salt)","% Reduction in Plant Height over untreated controls (barley (Hordeum vulgare); rate 1.5 kg/ha, sodium salt)",% Increase in Flowering over untreated controls ([1]; sodium salt),"% Reduction in Plant Height over untreated controls ([3]; rate 0.125 kg/ha, sodium salt)","% Reduction in Plant Height over untreated controls ([3]; rate 0.25 kg/ha, sodium salt)"
"O=[N+]([O-])Nc1c(Br)cc(Br)cc1Br [2,4,6-Tribromo-N--nitroaniline, potassium salt]",2.7%,11.8%,2.0%,normal,normal,normal,normal,> 5%,> 5%,> 30%,–,–,–,–,–,–
"O=[N+]([O-])Nc1c(Br)cc(Br)cc1Br [2,4,6-Tribromo-N--nitroaniline, sodium salt]",–,–,–,–,–,–,–,–,–,–,6.2%,13.0%,13.0%,normal,> 35%,> 40%
